Experimental data published in ChEMBL document CHEMBL4321815, “Discovery of an Extremely Potent Thiazine-Based β-Secretase Inhibitor with Reduced Cardiovascular and Liver Toxicity at a Low Projected Human Dose” (J Med Chem, 2019).

Assays:
[1] = Cmax in mouse at 2.5 mg/kg, po; format: ADME, organism-based; design: dose 2.5 mg/kg, route oral; details: in vivo
[2] = Tmax in mouse at 2.5 mg/kg, po; format: ADME, organism-based; details: in vivo
[3] = AUC in mouse at 2.5 mg/kg, po; format: ADME, organism-based; details: in vivo
[4] = Oral bioavailability in mouse at 2.5 mg/kg; format: ADME, organism-based; details: in vivo
[5] = Volume of distribution at steady state in Sprague-Dawley rat at 0.5 mg/kg, iv by LC/MS/MS analysis; format: ADME, organism-based; details: in vivo, read-out: Vdss
[6] = Half life in Sprague-Dawley rat at 0.5 mg/kg, iv by LC/MS/MS analysis; format: ADME, organism-based; details: in vivo
[7] = Cmax in Sprague-Dawley rat at 2.5 mg/kg, po by LC/MS/MS analysis; format: ADME, organism-based; design: dose 2.5 mg/kg, route oral; details: in vivo
[8] = Tmax in Sprague-Dawley rat at 2.5 mg/kg, po by LC/MS/MS analysis; format: ADME, organism-based; details: in vivo
[9] = AUC in Sprague-Dawley rat at 2.5 mg/kg, po by LC/MS/MS analysis; format: ADME, organism-based; details: in vivo
[10] = Oral bioavailability in Sprague-Dawley rat at 2.5 mg/kg by LC/MS/MS analysis; format: ADME, organism-based; details: in vivo
[11] = Clearance in dog at 0.5 mg/kg, iv; format: ADME, organism-based, Canis lupus familiaris; details: in vivo
[12] = Volume of distribution at steady state in dog at 0.5 mg/kg, iv; format: ADME, organism-based, Canis lupus familiaris; details: in vivo, read-out: Vdss
[13] = Half life in dog at 0.5 mg/kg, iv; format: ADME, organism-based, Canis lupus familiaris; details: in vivo
[14] = Cmax in dog at 2.5 mg/kg, po; format: ADME, organism-based, Canis lupus familiaris; design: dose 2.5 mg/kg, route oral; details: in vivo
[15] = AUC in dog at 2.5 mg/kg, po; format: ADME, organism-based, Canis lupus familiaris; details: in vivo
[16] = Oral bioavailability in dog at 2.5 mg/kg; format: ADME, organism-based, Canis lupus familiaris; details: in vivo
[17] = Clearance in Cynomolgus monkey at 0.5 mg/kg, iv by LC/MS/MS analysis; format: ADME, organism-based, Macaca fascicularis; details: in vivo
[18] = Volume of distribution at steady state in Cynomolgus monkey at 0.5 mg/kg, iv by LC/MS/MS analysis; format: ADME, organism-based, Macaca fascicularis; details: in vivo, read-out: Vdss
[19] = Half life in Cynomolgus monkey at 0.5 mg/kg, iv by LC/MS/MS analysis; format: ADME, organism-based, Macaca fascicularis; details: in vivo
[20] = Tmax in Cynomolgus monkey at 2.5 mg/kg, po by LC/MS/MS analysis; format: ADME, organism-based, Macaca fascicularis; details: in vivo
[21] = Cmax in Cynomolgus monkey at 2.5 mg/kg, po by LC/MS/MS analysis; format: ADME, organism-based, Macaca fascicularis; design: dose 2.5 mg/kg, route oral; details: in vivo
[22] = AUC in Cynomolgus monkey at 2.5 mg/kg, po by LC/MS/MS analysis; format: ADME, organism-based, Macaca fascicularis; details: in vivo
[23] = Oral bioavailability in Cynomolgus monkey at 2.5 mg/kg by LC/MS/MS analysis; format: ADME, organism-based, Macaca fascicularis; details: in vivo
[24] = Toxicity in anesthetized guinea-pig at 0.19 to 6 mg/kg, iv administered for 5 mins; format: organism-based, Cavia porcellus; details: in vivo
[25] = Toxicity in anesthetized dog assessed as induction of adverse effect at 0.08 to 2.5 mg/kg, iv administered for 5 mins measured after 5 to 30 mins; format: organism-based, Canis lupus familiaris; details: in vivo
[26] = Toxicity in po dosed Sprague-Dawley rat administered as suspension for 2 weeks; format: organism-based; details: in vivo
[27] = AUC (0 to 24 hrs) in Sprague-Dawley rat at 250 mg/kg/day administered as suspension for 2 weeks; format: ADME, organism-based; design: dose 250 mg/kg/day, time < 24 hr; details: in vivo
[28] = Toxicity in po dosed Beagle dog assessed as induction of adverse effect administered for 2 weeks; format: organism-based, Canis lupus familiaris; details: in vivo
[29] = AUC in Beagle dog at 6 mg/kg/day, po administered for 2 weeks; format: ADME, organism-based, Canis lupus familiaris; details: in vivo
Canis familiaris = species on record: Canis familiaris; assay: animal or person; format: functional, organism-based; details: Canis lupus familiaris, Beagle
[30] = Tmax in dog at 2.5 mg/kg, po; format: ADME, organism-based, Canis lupus familiaris; details: in vivo

Work on `C[C@H]1SC(N)=N[C@](C)(c2cc(NC(=O)c3cnc(OCF)cn3)ccc2F)[C@H]1F` yielded a Cmax [1] of 195 ng/mL, a Tmax [2] of 0.3 h and an AUC [3] of 596 ng·h/mL. The bioavailability [4] was 58%, the Vd [5] was 5 L/kg and the half-life [6] was 2.2 h. For the same compound, the Cmax [7] was 148 ng/mL, the Tmax [8] was 0.7 h and the AUC [9] was 566 ng·h/mL. It also gave a bioavailability [10] of 38%, a clearance [11] of 2.6 mL/min/kg and a Vd [12] of 2.8 L/kg. For the same compound, the half-life [13] was 13.7 h, the Cmax [14] was 685 ng/mL and the AUC [15] was 10400 ng·h/mL. For the same compound, the bioavailability [16] was 95%, the clearance [17] was 23 mL/min/kg and the Vd [18] was 7 L/kg. For the same compound, the half-life [19] was 4.9 h, the Tmax [20] was 3 h and the Cmax [21] was 54 ng/mL. For the same compound, the AUC [22] was 429 ng·h/mL, the bioavailability [23] was 24% and the NOAEL [24] was over 6.9 µg/mL. It also gave a fNOAEL [24] of 2.4 µM, an NOAEL [25] of over 6.9 µg/mL and a fNOAEL [25] of 1.3 µM. For the same compound, the NOAEL at 336 h [26] was 250 mg/kg/day, the AUC at 24 h [27] was 68000 ng·h/mL and the NOAEL at 336 h [28] was 6 mg/kg/day. It also gave an AUC at 336 h [29] of 41000 ng·h/mL, an EC50 (Canis familiaris) of 1.8 nM and a Tmax [30] of 1.8 h.
